Experimental data from patent US9708247B2, “Modulators of the eIF2alpha pathway” (The Regents of the University of California, priority 2013, dated 2017).

System: ATF4 luciferase reporter
Experiment: ATF4 luciferase reporter assay (Cell-luc) in HEK293T cells
Type: cell-based, human
Details: ATF4 luciferase reporter, HEK293T cells; read-out: IC50 (nM) Cell-luc
Source text: FIGS. 1A-1C. […]
To identify inhibitors of PERK signaling, we engineered a reporter that allows monitoring of PERK activation in living cells. To this end, we constructed a retroviral vector containing the open-reading frame of firefly luciferase fused to the 5′UTR of ATF4 mRNA (FIG. 1A), which contains two short open-reading frames (uORFs) that control ATF4 translation in a stress-dependent manner. After infection, we established a HEK293T cell line harboring the stably integrated reporter. […] This format was used to screen 106,281 compounds covering a wide chemical space. We identified 460 hits (0.43%) (FIG. 1C), which were further validated in an 8-point dose-response assay using the same reporter. We further triaged the compounds by discarding inhibitors that also affected the IRE1 branch of the UPR using an XBP1-luciferase splicing reporter. […] We next used an orthogonal secondary screen that employed a different reporter (bi-cistronic ATF4-dGFPIRES-mCherry) stably integrated into a different cell line (U20S cells). The read-out of this latter screen was microscopy-based, which allowed us to simultaneously assess acute toxicity by cell counting, further reducing the number of viable hits to 77. As a tertiary screen, we tested compounds for their ability to inhibit ER stress-elicited induction of endogenous ATF4 by Western blot analysis. Twenty-eight compounds passed this test and were analyzed further.
ATF4 reporters were constructed by fusing the human full-length ATF4 5′-UTR (NCBI Accession BC022088.2) in front of the firefly luciferase (FLuc) or a destabilized eGFP (dEGFP) coding sequences lacking the initiator methionine.
The ATF4-FLuc reporter was generated by cloning a PCR-product containing the ATF4 full-length 5′-UTR (from +1 position a the transcription start site down to one nucleotide after the terminator codon of the second uORF) flanked by KpnI/XhoI and BglII sites at the 5′ and 3′ ends, respectively, into the KpnI-BglII sites of pCAX-F-XBP1-Luc. The resulting construct, pCAX-ATF4-FLuc, was then digested with BamHI, blunted with T4 DNA polymerase, and then digested with XhoI. The resulting fragment was then subcloned into the retroviral expression vector pLPCX (Clontech) after digesting it with HindIII, blunting with T4 DNA polymerase and then digesting with XhoI to generate pLPCX-ATF4-FLuc (DAA-312). DAA-312 was used to produce recombinant retroviruses using standard methods and the resulting viral supernatant was used to transduce HEK293T cells, which were then subsequently selected with puromycin to generate a stable cell line employed in the primary screen.
HEK293T cells carrying the ATF4 luciferase reporter were plated on poly-lysine coated 384 well plates (Greiner) at 30,000 cells per well. […] Luminescence was measured using One Glo (Promega) as specified by the manufacturer. […] Thus, these were considered unique to the PERK branch and were cherry-picked for further analysis.

SMILES | IC50 [nM]
O=C(COc1ccc(Cl)cc1)N[C@H]1CC[C@H](NC(=O)COc2ccc(Cl)c([N+](=O)[O-])c2)CC1 [compound 874804] | 3
C#Cc1ccc(OCC(=O)N[C@H]2CC[C@H](NC(=O)COc3ccc(N=[N+]=[N-])cc3)CC2)cc1 [compound 957866] | 232
O=C(COc1ccc(Cl)c([N+](=O)[O-])c1)N[C@H]1CC[C@H](NC(=O)COc2ccc(Cl)c([N+](=O)[O-])c2)CC1 [compound 957889] | 11
N=C(COc1ccc(Cl)c(F)c1)N[C@H]1CC[C@H](NC(=O)COc2ccc(Cl)c(F)c2)CC1 [compound 957915] | 344
N=C(COc1ccc(Cl)c(F)c1)N[C@H]1CC[C@H](NC(=O)COc2ccc(Cl)c(F)c2)CC1 [compound 957916] | 122

Same assay, conditions: Homo sapiens, HEK-293T, ATF4 luciferase reporter, HEK293T cells; read-out: IC50 (nM) Cell-luc

SMILES | IC50 [nM]
CC(=O)c1cc(Cl)ccc1OCC(=O)N[C@H]1CC[C@H](NC(=O)COc2ccc(Cl)cc2)CC1 [compound 873972] | > 10000
O=C(COc1ccc(Cl)cc1)N[C@H]1CC[C@H](NC(=O)COc2ccc(Cl)cc2C(=O)c2ccccc2)CC1 [compound 873973] | > 10000
O=C(COc1ccc(Cl)cc1)NCc1ccc(CNC(=O)COc2ccc(Cl)cc2)cc1 [compound 874796] | > 10000
O=C(COc1ccc(Cl)cc1)N[C@H]1CC[C@H](NC(=O)OCc2ccc(Cl)cc2)CC1 [compound 874797] | 122
CC(C)c1ccc(OCC(=O)N[C@H]2CC[C@H](NC(=O)COc3ccc(Cl)cc3)CC2)cc1 [compound 874798] | 200
CC(Oc1ccc(Cl)cc1)C(=O)N[C@H]1CC[C@H](NC(=O)COc2ccc(Cl)cc2)CC1 (stereo partly drawn) [compound 874799] | 210
O=C(COc1ccc(Cl)cc1)N[C@H]1CC[C@H](NC(=O)COc2ccc(Cl)c(Cl)c2)CC1 [compound 874800] | 2
Cc1cc(OCC(=O)N[C@H]2CC[C@H](NC(=O)COc3ccc(Cl)cc3)CC2)ccc1Cl [compound 874801] | 2.4
O=C(COc1ccc(Cl)cc1)N[C@H]1CC[C@H](NC(=O)COc2ccc(Cl)c(F)c2)CC1 [compound 874802] | 2
O=C(COc1ccc(Cl)cc1)N[C@H]1CC[C@H](NC(=O)COc2ccc(Cl)c(C(F)(F)F)c2)CC1 [compound 874803] | 4
Clc1ccccc1CNC[C@H]1CC[C@H](CNCc2ccccc2Cl)CC1 [compound 874805] | > 10000
O=C(Cc1ccc(Cl)cc1)NCc1ccc(CNC(=O)Cc2ccc(Cl)cc2)cc1 [compound 885253] | > 10000
O=C(NCc1ccc(CNC(=O)Oc2ccc(Cl)cc2)cc1)Oc1ccc(Cl)cc1 [compound 885254] | > 10000
O=C(COc1ccc(Cl)cc1)N[C@H]1CC[C@H](CNC(=O)Oc2ccc(Cl)cc2)CC1 [compound 885255] | 30
O=C(Cc1ccc(Cl)cc1)NC[C@H]1CC[C@H](NC(=O)COc2ccc(Cl)cc2)CC1 [compound 885256] | 152
O=C(N[C@H]1CC[C@H](NC(=O)OCc2ccc(Cl)cc2)CC1)OCc1ccc(Cl)cc1 [compound 885257] | > 10000
O=C(COc1ccc(Cl)cc1)N[C@H]1CC[C@H](NC(=O)COc2cccc(F)c2)CC1 [compound 912562] | 125
O=C(COc1ccc(Cl)cc1)N[C@H]1CC[C@H](NC(=O)COc2cccc(F)c2F)CC1 [compound 912563] | 334
O=C(COc1ccc(Cl)cc1)N[C@H]1CC[C@H](NC(=O)COc2cc(F)cc(F)c2)CC1 [compound 912564] | 220
O=C(COc1ccc(Cl)cc1)N[C@H]1CC[C@H](NC(=O)COc2cc(Cl)cc(Cl)c2)CC1 [compound 912565] | > 10000
CC(=O)c1cc(OCC(=O)N[C@H]2CC[C@H](NC(=O)COc3ccc(Cl)cc3)CC2)ccc1Cl [compound 912566] | 149

SMILES | IC50 [nM]
O=C(NC[C@H]1CC[C@H](CNC(=O)Oc2ccc(Cl)cc2)CC1)Oc1ccc(Cl)cc1 [compound 913815] | > 10000
O=C(COc1ccc(Cl)cc1)N[C@H]1CC[C@H](NC(=O)COc2ccc(Cl)c(I)c2)CC1 [compound 914582] | 5.2
C[Si](C)(C)C#Cc1cc(OCC(=O)N[C@H]2CC[C@H](NC(=O)COc3ccc(Cl)cc3)CC2)ccc1Cl [compound 914583] | 12
C#Cc1cc(OCC(=O)N[C@H]2CC[C@H](NC(=O)COc3ccc(Cl)cc3)CC2)ccc1Cl [compound 914584] | 12
O=C(COc1ccc(Cl)cc1)N[C@H]1CC[C@H](NC(=O)COc2ccc(I)cc2)CC1 [compound 914989] | 5.6
C[Si](C)(C)C#Cc1ccc(OCC(=O)N[C@H]2CC[C@H](NC(=O)COc3ccc(Cl)cc3)CC2)cc1 [compound 916348] | 160
C#Cc1ccc(OCC(=O)N[C@H]2CC[C@H](NC(=O)COc3ccc(Cl)cc3)CC2)cc1 [compound 916353] | 14
C[C@@H]1NC(=O)N[C@@H]1CCCCCC(=O)NCCOCCOCCOCCn1cc(-c2ccc(OCC(=O)N[C@H]3CC[C@H](NC(=O)COc4ccc(Cl)cc4)CC3)cc2)nn1 [compound 916727] | 520
C[C@@H]1NC(=O)N[C@@H]1CCCCCC(=O)NCCOCCOCCOCCn1cc(-c2cc(OCC(=O)N[C@H]3CC[C@H](NC(=O)COc4ccc(Cl)cc4)CC3)ccc2Cl)nn1 [compound 916728] | 1270
C#Cc1ccc(OCC(=O)N[C@H]2CC[C@H](NC(=O)COc3ccc(C4(C(F)(F)F)N=N4)cc3)CC2)cc1 [compound 916751] | > 10000
O=C(COc1ccc(I)cc1)N[C@H]1CC[C@H](NC(=O)COc2ccc(I)cc2)CC1 [compound 916784] | 51
C[Si](C)(C)C#Cc1ccc(OCC(=O)N[C@H]2CC[C@H](NC(=O)COc3ccc(C#C[Si](C)(C)C)cc3)CC2)cc1 [compound 916785] | > 10000
C#Cc1ccc(OCC(=O)N[C@H]2CC[C@H](NC(=O)COc3ccc(C#C)cc3)CC2)cc1 [compound 916786] | 158
O=C(CCCC[C@H]1SC[C@@H]2NC(=O)N[C@@H]21)NCCCCCOC(=O)CCCCCn1cc(-c2ccc(OCC(=O)N[C@H]3CC[C@H](NC(=O)COc4ccc(Cl)cc4)CC3)cc2)nn1 [compound 916846] | 200
O=C(CCCC[C@H]1SCC2NC(=O)NC21)NCCCCCOC(=O)CCCCCn1cc(-c2cc(OCC(=O)N[C@H]3CC[C@H](NC(=O)COc4ccc(Cl)cc4)CC3)ccc2Cl)nn1 (stereo partly drawn) [compound 916847] | 900
C#Cc1ccc(OCC(=O)N[C@H]2CC[C@H](NC(=O)COc3ccc(Cl)c(C4(C(F)(F)F)N=N4)c3)CC2)cc1 [compound 955278] | > 10000
O=C(COc1ccc(Cl)c(Cl)c1)N[C@H]1CC[C@H](NC(=O)COc2ccc(Cl)c(Cl)c2)CC1 [compound 957885] | 0.8
Cc1cc(OCC(=O)N[C@H]2CC[C@H](NC(=O)COc3ccc(Cl)c(C)c3)CC2)ccc1Cl [compound 957886] | 3
O=C(COc1ccc(Cl)c(C(F)(F)F)c1)N[C@H]1CC[C@H](NC(=O)COc2ccc(Cl)c(C(F)(F)F)c2)CC1 [compound 957887] | 11
O=C(COc1ccc(Cl)c(F)c1)N[C@H]1CC[C@H](NC(=O)COc2ccc(Cl)c(F)c2)CC1 [compound 957888] | 0.6
N=C(COc1ccc(Cl)c(Cl)c1)N[C@H]1CC[C@H](NC(=O)COc2ccc(Cl)c(Cl)c2)CC1 [compound 957914] | 40

Same assay, conditions: Homo sapiens, HEK-293T, read-out: IC50 (nM) Cell-luc

SMILES | IC50 [nM]
O=C(COc1ccc(I)cc1)N[C@H]1CC[C@H](NC(=O)COc2ccc(C3(C(F)(F)F)NN3)cc2)CC1 [compound 916744] | > 10000
